“And” between values parts separate entries of the source, which are not always exact repeats. Equal entries are not always repeated.
What was measured:
[1] = Biodistribution studies of radiotracer in healthy female Wistar rats; assay type: in vivo; conditions: for % ID blood: blood mass assumed 7% of body mass; for SUV blood / % ID carcass / % ID cerebellum / SUV cerebellum / % ID cerebrum / SUV cortex / % ID heart / SUV hippocampus / % ID intestines / % ID kidneys / % ID liver / % ID lungs / SUV rest of cerebrum / % ID spleen + pancreas / % ID stomach / SUV striatum / % ID urine / SUV whole cerebrum: mean ± SD, n = 3
Procedure: (§1) HPLC analysis was performed on a LaChrom Elite HPLC system (Hitachi, Armstadt, Germany) connected to a UV spectrometer set at 220 nm. For the analysis of radiolabeled compounds, the HPLC eluate, after passage through the UV detector, was led over a shielded 3-inch NaI(Tl) scintillation detector connected to a multichannel analyser (Gabi box, Raytest, Straubenhardt, Germany). The output signal was recorded and analysed using a GINA Star data acquisition system (Raytest, Straubenhardt, Germany). Radioactivity in samples of biodistribution studies, cell uptake experiments and radiometabolite analysis was quantified using an automated gamma counter equipped with a 3-inch NaI(Tl) well crystal coupled to a multichannel analyser (Wallac 2480 Wizard, Wallac, Turku, Finland). Results were corrected for background radiation, physical decay and counter dead time.
Animals were housed in individually ventilated cages in a thermoregulated (˜22° C.), humidity-controlled facility under a 12 h/12 h light/dark cycle with access to food and water ad libitum. All animal experiments were conducted according to the Belgian code of practice for the care and use of animals, after approval from the KU Leuven University Ethics Committee for Animals.
The biodistribution studies were performed in healthy female Wistar rats (body weight, 185-220 g) at 2, 30 and 60 min after tracer injection (n=3/time point). […] The animals were sacrificed by decapitation at the indicated time points. Blood and major organs were collected in tared tubes and weighed. The radioactivity in the dissected organs and blood was counted using an automated gamma counter. For calculation of total blood radioactivity, blood mass was assumed to be 7% of the body mass.

[2] = Rat plasma radiometabolite analysis; assay type: in vivo; conditions: 30 min after radiotracer injection, n=2
Procedure: as §1
Radiometabolites of [^11C]55 in plasma of normal female Wistar rats (n=2) were quantified at 30 min after tracer injection. […] The fraction of more lipophilic radiometabolites eluting after the intact tracer was negligible (<1.5%).

C[C@H]1Cn2c(nnc2-c2cc(O[11CH3])ccn2)CN1C(=O)c1cccc(Cl)c1Cl [[^11C]55, (S)-(2,3-dichlorophenyl)(3-(4-[^11C]methoxypyridin-2-yl)-6-methyl-5,6-dihydro-[1,2,4]triazolo[4,3-a]pyrazin-7(8H)-yl)methanone]
% ID blood ([1]; 2 min after tracer injection): 10.0 % ID and 10.0 ± 2.4 % ID
SUV blood ([1]; 2 min after tracer injection): 1.42 ± 0.3
% ID blood ([1]; 30 min after tracer injection): 5.2 ± 0.6 % ID
SUV blood ([1]; 30 min after tracer injection): 0.74 ± 0.1
% ID blood ([1]; 60 min after tracer injection): 5.3 % ID and 5.3 ± 0.6 % ID
SUV blood ([1]; 60 min after tracer injection): 0.75 ± 0.1
% ID carcass ([1]; 2 min after tracer injection): 35.1 ± 4.1 % ID
% ID carcass ([1]; 30 min after tracer injection): 46.9 ± 0.5 % ID
% ID carcass ([1]; 60 min after tracer injection): 43.2 ± 5.3 % ID
% ID cerebellum ([1]; 2 min after tracer injection): 0.1 ± 0.0 % ID
SUV cerebellum ([1]; 2 min after tracer injection): 1.02 ± 0.1
% ID cerebellum ([1]; 30 min after tracer injection): 0.1 ± 0.0 % ID
SUV cerebellum ([1]; 30 min after tracer injection): 0.53 ± 0.0
% ID cerebellum ([1]; 60 min after tracer injection): 0.1 ± 0.0 % ID
SUV cerebellum ([1]; 60 min after tracer injection): 0.59 ± 0.1
% ID cerebrum ([1]; 2 min after tracer injection): 0.5 ± 0.0 % ID
% ID cerebrum ([1]; 30 min after tracer injection): 0.3 ± 0.0 % ID
% ID cerebrum ([1]; 60 min after tracer injection): 0.3 ± 0.1 % ID
SUV cortex ([1]; 2 min after tracer injection): 0.80 ± 0.2
SUV cortex ([1]; 30 min after tracer injection): 0.58 ± 0.1
SUV cortex ([1]; 60 min after tracer injection): 0.65 ± 0.1
% ID heart ([1]; 2 min after tracer injection): 1.3 ± 0.2 % ID
% ID heart ([1]; 30 min after tracer injection): 0.4 ± 0.0 % ID
% ID heart ([1]; 60 min after tracer injection): 0.4 ± 0.1 % ID
SUV hippocampus ([1]; 2 min after tracer injection): 0.74 ± 0.0
SUV hippocampus ([1]; 30 min after tracer injection): 0.43 ± 0.0
SUV hippocampus ([1]; 60 min after tracer injection): 0.52 ± 0.1
% ID intestines ([1]; 2 min after tracer injection): 14.0 ± 1.8 % ID
% ID intestines ([1]; 30 min after tracer injection): 23.8 ± 1.1 % ID
% ID intestines ([1]; 60 min after tracer injection): 26.7 ± 9.1 % ID
% ID kidneys ([1]; 2 min after tracer injection): 4.5 ± 0.8 % ID
% ID kidneys ([1]; 30 min after tracer injection): 1.9 ± 0.1 % ID
% ID kidneys ([1]; 60 min after tracer injection): 1.8 ± 0.2 % ID
injected dose retained in the liver and the intestines ([1]; liver and intestines, 60 min after tracer injection): 43.8%
% ID liver ([1]; 2 min after tracer injection): 34.8 ± 2.1 % ID
% ID liver ([1]; 30 min after tracer injection): 19.4 ± 0.5 % ID
% ID liver ([1]; 60 min after tracer injection): 17.1 ± 0.3 % ID
% ID lungs ([1]; 2 min after tracer injection): 2.1 ± 0.3 % ID
% ID lungs ([1]; 30 min after tracer injection): 1.0 ± 0.1 % ID
% ID lungs ([1]; 60 min after tracer injection): 1.1 ± 0.4 % ID
SUV rest of cerebrum ([1]; 2 min after tracer injection): 0.86 ± 0.0
SUV rest of cerebrum ([1]; 30 min after tracer injection): 0.46 ± 0.0
SUV rest of cerebrum ([1]; 60 min after tracer injection): 0.53 ± 0.1
% ID spleen + pancreas ([1]; 2 min after tracer injection): 1.4 ± 0.4 % ID
% ID spleen + pancreas ([1]; 30 min after tracer injection): 0.6 ± 0.1 % ID
% ID spleen + pancreas ([1]; 60 min after tracer injection): 0.6 ± 0.1 % ID
% ID stomach ([1]; 2 min after tracer injection): 1.7 ± 0.3 % ID
% ID stomach ([1]; 30 min after tracer injection): 2.1 ± 1.0 % ID
% ID stomach ([1]; 60 min after tracer injection): 5.1 ± 3.4 % ID
SUV striatum ([1]; 2 min after tracer injection): 0.78 ± 0.0
SUV striatum ([1]; 30 min after tracer injection): 0.45 ± 0.0
SUV striatum ([1]; 60 min after tracer injection): 0.50 ± 0.1
total initial brain uptake ([1]; total brain, 2 min after injection): 0.6%
total brain uptake ([1]; total brain, 60 min after tracer injection): 0.4%
% ID in urine and kidneys ([1]; urine and kidneys, 60 min after injection): 2.9 % ID
% ID urine ([1]; 2 min after tracer injection): 0.1 ± 0.1 % ID
% ID urine ([1]; 30 min after tracer injection): 0.9 ± 0.0 % ID
% ID urine ([1]; 60 min after tracer injection): 1.1 ± 0.5 % ID
SUV whole cerebrum ([1]; 2 min after tracer injection): 0.83 ± 0.0
SUV whole cerebrum ([1]; 30 min after tracer injection): 0.46 ± 0.0
SUV whole cerebrum ([1]; 60 min after tracer injection): 0.54 ± 0.1
recovered radioactivity in the plasma in the form of intact tracer [2]: 70±6%
